Laboratory results from patent US20250188080A1, “IMIDAZOLONYLQUINOLINE COMPOUNDS AND THERAPEUTIC USES THEREOF” (Merck Patent GmbH, priority 2019, published 2025).
Values after ≈ are worked out from the molar mass of the structure shown. Read-outs that look alike come from different tables or passages of the source.

Experiments:
[1] = target: T1, human ATR/ATRIP (Homo sapiens, UniProt Q13535); assay: ATR/ATRIP kinase assay; type: biochemical
T1 construct: human ATR, full length, GenBank ID: NM_001184.3; host or cells: mammalian cell line (ATR/ATRIP co-expressed); Sf21 insect cells (p53)
T1 sequence (Q13535 whole entry): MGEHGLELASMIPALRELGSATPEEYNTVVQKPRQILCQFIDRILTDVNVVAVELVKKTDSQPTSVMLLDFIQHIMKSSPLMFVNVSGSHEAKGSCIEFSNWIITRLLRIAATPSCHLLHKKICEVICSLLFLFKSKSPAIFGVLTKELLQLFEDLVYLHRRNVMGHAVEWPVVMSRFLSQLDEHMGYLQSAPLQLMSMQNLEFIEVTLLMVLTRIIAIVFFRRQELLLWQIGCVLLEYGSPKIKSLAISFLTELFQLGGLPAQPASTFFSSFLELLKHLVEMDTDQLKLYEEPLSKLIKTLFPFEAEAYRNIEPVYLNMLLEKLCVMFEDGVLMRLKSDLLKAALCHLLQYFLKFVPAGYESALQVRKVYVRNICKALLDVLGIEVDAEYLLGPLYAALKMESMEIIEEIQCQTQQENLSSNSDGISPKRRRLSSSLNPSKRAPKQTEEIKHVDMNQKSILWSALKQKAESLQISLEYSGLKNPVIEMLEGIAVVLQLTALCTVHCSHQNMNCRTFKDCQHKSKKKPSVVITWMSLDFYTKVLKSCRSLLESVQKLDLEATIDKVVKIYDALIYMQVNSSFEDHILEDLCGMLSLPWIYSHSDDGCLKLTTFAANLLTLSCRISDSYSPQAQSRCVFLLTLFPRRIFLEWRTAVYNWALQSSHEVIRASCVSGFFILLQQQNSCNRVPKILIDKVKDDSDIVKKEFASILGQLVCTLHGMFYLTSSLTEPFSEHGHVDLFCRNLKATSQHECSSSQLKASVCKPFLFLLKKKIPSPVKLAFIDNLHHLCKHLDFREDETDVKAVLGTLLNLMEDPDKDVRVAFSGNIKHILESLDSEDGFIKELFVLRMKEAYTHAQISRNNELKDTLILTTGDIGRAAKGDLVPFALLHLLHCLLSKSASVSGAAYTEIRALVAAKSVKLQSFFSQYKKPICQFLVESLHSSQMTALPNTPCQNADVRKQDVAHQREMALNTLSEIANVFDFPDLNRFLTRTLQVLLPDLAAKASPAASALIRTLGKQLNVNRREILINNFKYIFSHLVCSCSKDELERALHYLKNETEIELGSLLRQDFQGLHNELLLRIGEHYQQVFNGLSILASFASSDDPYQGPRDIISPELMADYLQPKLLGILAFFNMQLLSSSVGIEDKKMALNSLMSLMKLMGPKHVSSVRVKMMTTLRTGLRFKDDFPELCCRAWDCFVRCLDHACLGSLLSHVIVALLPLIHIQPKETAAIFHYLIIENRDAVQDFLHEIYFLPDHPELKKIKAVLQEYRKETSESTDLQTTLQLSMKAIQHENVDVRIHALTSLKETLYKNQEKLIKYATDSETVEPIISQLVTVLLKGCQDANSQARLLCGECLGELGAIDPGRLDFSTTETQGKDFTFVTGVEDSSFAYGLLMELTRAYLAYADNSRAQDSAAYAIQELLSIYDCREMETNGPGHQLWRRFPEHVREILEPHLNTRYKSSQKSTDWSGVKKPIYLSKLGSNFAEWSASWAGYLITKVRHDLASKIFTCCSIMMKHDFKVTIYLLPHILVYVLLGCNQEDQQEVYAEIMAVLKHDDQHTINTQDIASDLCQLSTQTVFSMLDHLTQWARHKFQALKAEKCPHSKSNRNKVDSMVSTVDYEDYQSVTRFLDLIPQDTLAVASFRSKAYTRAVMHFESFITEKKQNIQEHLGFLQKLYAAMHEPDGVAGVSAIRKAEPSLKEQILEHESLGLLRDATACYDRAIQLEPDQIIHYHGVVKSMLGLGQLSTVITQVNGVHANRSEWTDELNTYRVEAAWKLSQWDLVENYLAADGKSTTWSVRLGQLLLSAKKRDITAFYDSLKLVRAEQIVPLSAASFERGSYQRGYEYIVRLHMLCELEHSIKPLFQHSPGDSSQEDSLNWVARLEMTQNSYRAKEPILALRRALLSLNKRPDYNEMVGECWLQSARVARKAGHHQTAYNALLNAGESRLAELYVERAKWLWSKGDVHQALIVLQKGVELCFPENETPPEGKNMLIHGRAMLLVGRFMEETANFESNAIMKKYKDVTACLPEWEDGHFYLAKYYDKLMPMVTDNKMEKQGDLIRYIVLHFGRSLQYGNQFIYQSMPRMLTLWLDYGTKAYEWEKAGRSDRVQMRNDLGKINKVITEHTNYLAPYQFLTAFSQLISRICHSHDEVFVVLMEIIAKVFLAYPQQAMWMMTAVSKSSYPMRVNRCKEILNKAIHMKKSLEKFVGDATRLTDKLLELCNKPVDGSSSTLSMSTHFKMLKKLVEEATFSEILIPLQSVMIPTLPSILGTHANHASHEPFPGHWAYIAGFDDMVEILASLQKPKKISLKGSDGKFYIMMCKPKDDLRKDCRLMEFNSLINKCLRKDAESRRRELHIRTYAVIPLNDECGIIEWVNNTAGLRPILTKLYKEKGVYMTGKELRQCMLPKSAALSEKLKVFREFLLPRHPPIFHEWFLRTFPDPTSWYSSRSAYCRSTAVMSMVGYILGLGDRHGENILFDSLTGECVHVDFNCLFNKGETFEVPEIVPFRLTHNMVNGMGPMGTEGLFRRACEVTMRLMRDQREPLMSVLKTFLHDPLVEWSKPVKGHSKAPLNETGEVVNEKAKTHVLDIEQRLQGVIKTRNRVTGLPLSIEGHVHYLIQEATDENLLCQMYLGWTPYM
T1 sequence (Q8WXE1 whole entry partner): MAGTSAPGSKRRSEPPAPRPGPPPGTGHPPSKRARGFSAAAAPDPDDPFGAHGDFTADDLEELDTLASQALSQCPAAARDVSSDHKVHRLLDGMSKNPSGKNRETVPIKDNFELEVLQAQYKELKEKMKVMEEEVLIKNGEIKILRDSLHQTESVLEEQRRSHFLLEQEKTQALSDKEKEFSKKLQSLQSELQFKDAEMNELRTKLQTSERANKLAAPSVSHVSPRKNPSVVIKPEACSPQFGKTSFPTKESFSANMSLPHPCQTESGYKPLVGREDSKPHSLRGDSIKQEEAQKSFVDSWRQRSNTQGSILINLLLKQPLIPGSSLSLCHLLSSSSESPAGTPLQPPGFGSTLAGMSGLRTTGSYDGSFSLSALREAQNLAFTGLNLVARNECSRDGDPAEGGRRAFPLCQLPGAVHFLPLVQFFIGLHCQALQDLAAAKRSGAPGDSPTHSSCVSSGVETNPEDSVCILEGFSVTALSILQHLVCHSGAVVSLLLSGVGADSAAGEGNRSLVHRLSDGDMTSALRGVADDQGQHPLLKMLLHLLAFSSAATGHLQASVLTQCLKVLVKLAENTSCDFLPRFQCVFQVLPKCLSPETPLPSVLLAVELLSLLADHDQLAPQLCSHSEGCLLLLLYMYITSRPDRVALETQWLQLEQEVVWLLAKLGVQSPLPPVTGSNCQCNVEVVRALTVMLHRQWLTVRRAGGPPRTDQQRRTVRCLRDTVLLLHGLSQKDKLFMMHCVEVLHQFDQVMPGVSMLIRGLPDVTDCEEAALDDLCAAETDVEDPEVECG
Procedure: The IC50 value was determined by an ATR/ATRIP enzymatic assay. The assay comprises two steps: the enzymatic reaction and the detection step. First, a mixture of ATR/ATRIP protein (Ataxia Telangiectasia and Rad3-related protein/ATR interacting protein), the compound in question at different concentrations, p53 as substrate protein and adenosine triphosphate (ATP) are incubated in assay buffer. ATR phosphorylates p53 at Ser15 and other residues. The amount of phosphorylated p53 is then detected using specific antibodies and the TR-FRET assay technology.
In detail: The ATR/ATRIP enzymatic assay is performed as a TR-FRET-(HTRF™, Cisbio Bioassays) based 384-well assay. In a first step, purified human recombinant ATR/ATRIP (human ATR, full length, GenBank ID: NM_001184.3, and human ATRIP, full length, GenBank ID AF451323.1, co-expressed in a mammalian cell line) is incubated in assay buffer for 15 minutes at 22° C. with test compound at different concentrations or without test compound (as a negative control). The assay buffer contains 25 mM HEPES pH 8.0, 10 mM Mg(CH3COO)2, 1 mM MnCl2, 0.1% BSA, 0.01% Brij® 35, and 5 mM dithiothreitol (DTT). […] The generation of phosphorylated p53 as a result of the ATR mediated reaction in the presence of ATP is detected by using specific antibodies [labeled with the fluorophores europium (Eu) as donor and d2 as acceptor (Cisbio Bioassays)] enabling FRET. […] Following signal development for 2 h the plates are analyzed in an EnVision (PerkinElmer) microplate reader using the TRF mode with laser excitation. Upon excitation of the donor europium at 340 nm the emitted fluorescence light of the acceptor d2 at 665 nm as well as from the donor Eu at 615 nm are measured. The amount of phosphorylated p53 is directly proportional to the ratio of the amounts of emitted light i.e. the ratio of the relative fluorescence units (rfu) at 665 nm and 615 nm. […] In particular, IC50 values are determined in the usual manner by fitting a dose-response curve to the data points using nonlinear regression analysis.

[2] = Solubility in biological buffer solutions; type: physicochemical
Procedure: Levels of dissolved compound/form were analysed by HPLC, with the following conditions: • Column: Chromolith RP-18e 100-3 mm • Solvent A: water/formic acid (999:1; v/v) • Solvent B: acetonitrile/formic acid (999:1; v/v) • Injection volume: 5 μL • Column temperature: 37° C. • HPLC-Gradient: […]

[3] = target: human phosphodiesterase-2A1 (Homo sapiens, UniProt O00408); assay: PDE2A1 assay (Cerep); type: biochemical
Procedure: A commercially available assay was used (Cerep, catalog ref. 4071, SOP no 1C1054), which is designed to evaluate the effects of compounds on the activity of the human phosphodiesterase-2A1 quantified by measuring the formation of 5′AMP from cAMP using a human recombinant enzyme expressed in Sf9 cells.
The test compound, reference compound or water (control) are added to a buffer containing 40 mM Tris/HCl (pH 7.4), 8 mM MgCl2 and 1.7 mM EGTA/NaOH, 1.8 μM cAMP and 1 μCi [^3H]cAMP.
Thereafter, the reaction is initiated by addition of the enzyme (about 2.5 U) and the mixture is incubated for 20 min at 22° C.
For basal control measurements, the enzyme is omitted from the reaction mixture.
Following incubation SPA beads are added.
After 30 min at 22° C. under shaking, the amount of [^3H]5′AMP is quantified with a scintillation counter (Topcount, Packard).
The results are expressed as a percent inhibition of the control enzyme activity.
The standard inhibitory reference compound is EHNA (erythro-9-(2-hydroxy-3-nonyl) adenine), which is tested in each experiment at several concentrations to obtain an inhibition curve from which its IC50 value is calculated.

[4] = Microsomal stability (intrinsic clearance), rat; type: in vitro ADME; conditions: for microsomal CLint: liver microsomes
Text: A microsomal stability assay is used to measure in vitro clearance (Clint). The assay involves measuring the rate of disappearance of a compound due to its intrinsic attitude to be metabolized (“intrinsic” meaning that the disappearance is not affected by other properties like permeability, binding etc. that play a role when quantifying in vivo clearance). The microsomal stability (intrinsic clearance, Clint) and, thus, metabolic stability is generally given as μl/min/mg protein. It can be visualized as the volume of solution that 1 mg of microsomes is able to clear of the compound in one minute. The microsomal/metabolic stability of each compound was determined by measurement of the change in LC-MS/MS peak area over time. Data are fitted according to a log linear model in line with Michaelis/Menten. The Clint value is calculated from the slope (k) of the linear log transformed concentration per time plot divided by the amount of microsomes (0.5 mg/ml): Clint (μl/min/mg protein)=k*1000/protein concentration. Assay Explorer software was used to automatically calculate the slope k of the decline.

[5] = FaSSIF, pH 6.5, fassif, FaSSiF, pH 6.5, read-out: Solubility FaSSiF, pH 6.5
[6] = FeSSIF, pH 5, fessif, FeSSiF, pH 5.0, read-out: Solubility FeSSiF, pH 5.0
[7] = PBS, pH 7.4, aqueous buffer, PBS, pH 7.4, read-out: Solubility PBS, pH 7.4

Row | Compound | IC50 [1] | solubility [2, 5] | solubility [2, 6] | solubility [2, 7] | IC50 [3] | microsomal CLint [4] | Solubility FaSSiF, pH 6.5 ([2]; FaSSiF, pH 6.5) | Solubility FeSSiF, pH 5.0 ([2]; FeSSiF, pH 5.0) | Solubility PBS, pH 7.4 ([2]; PBS, pH 7.4) | CLint (rat) ([4]; rat microsomes)
1 | COc1cc2ncc3c(c2cc1-c1cn(C)nc1C)n(-c1c(F)cncc1OC)c(=O)n3C (single isomer, unassigned) [Compound 1, 8-(1,3-Dimethyl-1H-pyrazol-4-yl)-1-(Sa)-(3-fluoro-5-methoxy-pyridin-4-yl)-7-methoxy-3-methyl-1,3-dihydro-imidazo[4,5-c]quinolin-2-one] | 10 µM | 242 µg/mL (≈ 540 µM) | 731 µg/mL (≈ 1630 µM) | ~100 µg/mL (≈ 223 µM) | 2.2 µM | < 10 µL/min/mg |  |  |  | 
2 | COc1cc2ncc3c(c2cc1-c1cn(C)nc1C)n(-c1c(F)cncc1OC)c(=O)n3C (single isomer, unassigned) [Compound 2, 8-(1,3-Dimethyl-1H-pyrazol-4-yl)-1-(Ra)-(3-fluoro-5-methoxy-pyridin-4-yl)-7-methoxy-3-methyl-1,3-dihydro-imidazo[4,5-c]quinolin-2-one] | > 28 µM |  |  |  | 3.9 µM |  | 216 μg/ml | ~800 μg/ml | ~100 μg/ml | < 10 μl/min/mg protein
3 | COc1cc2ncc3c(c2cc1-c1cn(C)nc1C)n(-c1c(F)cncc1OC)c(=O)n3C [Compound Y, 8-(1,3-dimethyl-1H-pyrazol-4-yl)-1-(3-fluoro-5-methoxypyridin-4-yl)-7-methoxy-3-methyl-1,3-dihydroimidazo[4,5-c]quinolin-2-one, reference compound] | 5.06 µM | 52 µg/mL (≈ 116 µM) | 201 µg/mL (≈ 448 µM) | 19 µg/mL (≈ 42.4 µM) | 1.4 µM | 19 µL/min/mg |  |  |  | 
